Source: US20240350522A1, “HYGROMYCIN A FOR TREATMENT OF DISEASES AND INFECTIONS” (FLIGHTPATH BIOSCIENCES, INC., priority 2021, published 2024)
Several values for one entry are separate records, joined by “and”; a condition that tells them apart may be missing. Equal entries are not always repeated.

Experiments:
Type in all cases: cell-based
[1] = tested on: Treponema pallidum pallidum Chicago strain; experiment: T. pallidum susceptibility assay, co-culture with Sf1Ep cells, tp0574 (T47) qPCR after 7 days; conditions: penicillin 60 ng/ml, 7 days
[2] = tested on: Treponema pallidum pallidum Chicago strain; experiment: Treated treponemes seeded onto no-antibiotic plate, 7 more days, T47 qPCR (treponemicidal activity)
[3] = tested on: Treponema pallidum pallidum SS14 strain; experiment: T. pallidum susceptibility assay, co-culture with Sf1Ep cells, tp0574 (T47) qPCR after 7 days; conditions: penicillin 60 ng/ml, 7 days
[4] = tested on: Treponema pallidum pallidum SS14 strain; experiment: Treated treponemes seeded onto no-antibiotic plate, 7 more days, T47 qPCR (treponemicidal activity)
[5] = pre-treated with penicillin 60 ng/ml, seeded on no antibiotic plate, average
[6] = pre-treated with penicillin 60 ng/ml, seeded on no antibiotic plate, replicate wells

With CC1(C)S[C@@H]2[C@H](NC(=O)Cc3ccccc3)C(=O)N2[C@H]1C(=O)O [Pen., penicillin G, reference compound] the “Mean T47 copies/μL, Avg.” value ([1]; average of 8 replicates) was 252 copies/μL, the “Mean T47 copies/μL, experimental values” ([1]; replicate wells) was 294 copies/μL and 226 copies/μL and 304 copies/μL and 137 copies/μL and 328 copies/μL and 261 copies/μL and 222 copies/μL and 241 copies/μL and the “treponemicidal activity in words” value ([2]; Chicago strain, 60 ng/ml) was “treponemicidal”. The “Mean T47 copies/μL, Avg.” value [2, 5] was 26 copies/μL, the “Mean T47 copies/μL, Expt. values” [2, 6] was 12 copies/μL (2×) and 41 copies/μL and 74 copies/μL and 22 copies/μL (2×) and 15 copies/μL and 11 copies/μL and the “Mean T47 copies/μL, Average” value ([3]; average of 8 replicates) was 216 copies/μL. The “Mean T47 copies/μL, experimental values” ([3]; replicate wells) was 189 copies/μL and 200 copies/μL and 166 copies/μL and 282 copies/μL and 184 copies/μL and 223 copies/μL and 214 copies/μL and 271 copies/μL, the “treponemicidal activity in words” value ([4]; SS14 strain, 60 ng/ml) was “treponemicidal” and the “Mean T47 copies/μL, Avg.” value [4, 5] was 18 copies/μL. The “Mean T47 copies/μL, Expt. values” [4, 6] was 21 copies/μL (2×) and 17 copies/μL and 24 copies/μL and 10 copies/μL and 13 copies/μL and 27 copies/μL and 15 copies/μL.
